Experimental data reported in publication PMC6156125, “Chemistry and Hypoglycemic Activity of GPR119 Agonist ZB-16” (Frontiers in Endocrinology, 2018).
In brackets after ≈: the same amount, converted by molar mass.

Tests used:
human GPR119 (hGPR119) = target: T1, human GPR119 (hGPR119) (Homo sapiens, UniProt Q8TDV5); test: Specific (agonistic) activity in vitro, cAMP increase (Lance Ultra cAMP kit) in CHO-K1 cells expressing hGPR119; assay type: cell-based; conditions: CHO-K1 hGPR119, cAMP
T1 construct: expressed in transfected cells; host or cells: CHO-K1 (Chinese hamster ovary)
T1 sequence (Q8TDV5 1-335): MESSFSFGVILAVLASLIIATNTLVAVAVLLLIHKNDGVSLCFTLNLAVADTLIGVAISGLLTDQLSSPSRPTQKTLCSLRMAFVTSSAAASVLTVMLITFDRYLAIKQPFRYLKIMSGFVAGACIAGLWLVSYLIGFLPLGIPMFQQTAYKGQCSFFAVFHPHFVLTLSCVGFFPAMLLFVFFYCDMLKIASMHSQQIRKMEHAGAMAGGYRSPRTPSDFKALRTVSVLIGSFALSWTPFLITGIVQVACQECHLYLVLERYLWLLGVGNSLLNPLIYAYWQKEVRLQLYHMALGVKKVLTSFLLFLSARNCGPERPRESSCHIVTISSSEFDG
Procedure: Specific activity was evaluated using an immortalized Chinese hamster ovary cell line CHO-K1 steadily expressed human GPR119 (hGPR119). The cells (10^7 ml^−1) were cultured in Dulbecco's modified Eagle medium (DMEM) modified with 10% fetal bovine serum (FBS), revolved continuously at 50 rpm at 37°C in 8% CO2 for 3–4 days. Lance Ultra cAMP kit (Perkin Elmer, Waltham, MA, USA) was chosen as the experimental platform ([13]). The experiments were performed in accordance to the manufacturer's instructions. The agonistic activity of the test compounds was estimated by the increase in intracellular cAMP concentration, assuming the hGPR119 activation is followed by the activation of cellular adenylate cyclase, which increases intracellular cAMP levels ([4], [14]). Known agonists of hGPR119 receptors were used as positive controls to determine the maximal possible effect (MPE). The activity of test compounds was expressed in terms of median effective concentration (EC50).

[1] = Biotransformation in vitro, microsomal stability (human); assay type: in vitro ADME; conditions: for ER / CLh: Human microsomal fraction; for CLh: in mL/min/kg (unit assumed); for microsomal CLint at 0.5 μM / half-life at 0.5 μM: liver microsomal fraction; for half-life at 0.5 μM: NADPH, read-out: t1/2, min
Procedure: (§1) The metabolism of the compounds was studied in commercially available microsomal fractions derived from human and rat hepatocytes. Test compounds (0.5 μM) were incubated with microsomal fractions in the presence of NADPH during 30 min in a shaker at 37°C. Reactions were stopped at 0, 5, 10, 15, and 30 min by adding acetonitrile. After proteins precipitation, the remaining amount of the test compound in the supernatant was detected with high performance liquid chromatography tandem-mass spectrometry (HPLC-MS/MS) method using Agilent 1260 liquid chromatograph (Agilent Technologies, Santa Clara, CA, USA) and a QTRAP6500 triple quadrupole mass spectrometer with a TurboIonSpray electro-spraying module (ABSciex, Foster City, CA, USA) ([15]). Incubation was performed twice, with at least 2 measurements for each replicate (n ≥ 3). The half-life (T1/2), the clearance in vitro (CLint) and the remaining amount of substance (% of initial quantity) were calculated.

[2] = Biotransformation in vitro, microsomal stability (rat); assay type: in vitro ADME; conditions: for ER / CLh: Rat microsomal fraction; for CLh: in mL/min/kg (unit assumed); for microsomal CLint at 0.5 μM / half-life at 0.5 μM: liver microsomal fraction; for half-life at 0.5 μM: NADPH, read-out: t1/2, min
Procedure: as §1

physchem = conditions: kinetic from dmso stock
CYP1A2 = target: T2, CYP1A2 (Homo sapiens, UniProt P05177); test: CYP inhibition, Vivid CYP450 Screening Kit; assay type: in vitro ADME; conditions: 0.0046 to 10 μM tested
T2 construct: purchased Invitrogen Corporation, Carlsbad, CA, USA
T2 sequence (P05177 1-516): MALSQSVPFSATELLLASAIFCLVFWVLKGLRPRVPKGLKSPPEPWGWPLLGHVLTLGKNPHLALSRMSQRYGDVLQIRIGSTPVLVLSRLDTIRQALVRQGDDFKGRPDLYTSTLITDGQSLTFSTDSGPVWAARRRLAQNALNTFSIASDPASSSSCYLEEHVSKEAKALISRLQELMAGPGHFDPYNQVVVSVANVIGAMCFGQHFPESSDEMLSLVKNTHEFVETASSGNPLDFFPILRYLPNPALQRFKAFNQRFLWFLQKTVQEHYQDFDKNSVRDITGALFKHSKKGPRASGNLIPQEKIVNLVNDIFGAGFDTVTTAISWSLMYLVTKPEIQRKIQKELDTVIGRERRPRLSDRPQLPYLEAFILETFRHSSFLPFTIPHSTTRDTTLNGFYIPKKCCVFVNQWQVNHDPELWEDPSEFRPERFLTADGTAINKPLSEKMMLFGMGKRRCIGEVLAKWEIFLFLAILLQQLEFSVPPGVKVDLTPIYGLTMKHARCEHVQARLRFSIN
Procedure: (§2) Briefly, the reaction was initiated by adding NADP^+ and a substrate converted to fluorescent derivates by specific CYP isozyme. The reaction was terminated by adding 1M Tris. The fluorescence of the reaction product, which was proportional to CYP isozyme activity, was measured. […] The minimal signal was defined as the signal obtained without enzyme incubation. The inhibitory action of test compounds on the CYP isozymes was expressed in terms of median inhibitory concentration (IC50).

CYP2C19 = target: T3, CYP2C19 (Homo sapiens, UniProt P33261); test: CYP inhibition, Vivid CYP450 Screening Kit; assay type: in vitro ADME; conditions: 0.0046 to 10 μM tested
T3 construct: purchased Invitrogen Corporation, Carlsbad, CA, USA
Procedure: as §2

CYP2C9 = target: T4, CYP2C9 (Homo sapiens, UniProt P11712); test: CYP inhibition, Vivid CYP450 Screening Kit; assay type: in vitro ADME; conditions: 0.0046 to 10 μM tested
T4 construct: purchased Invitrogen Corporation, Carlsbad, CA, USA
Procedure: as §2

CYP2D6 = target: T5, CYP2D6 (Homo sapiens, UniProt P10635); test: CYP inhibition, Vivid CYP450 Screening Kit; assay type: in vitro ADME; conditions: 0.0046 to 10 μM tested
T5 construct: purchased Invitrogen Corporation, Carlsbad, CA, USA
Procedure: as §2

CYP3A4 = target: T6, CYP3A4 (Homo sapiens, UniProt P08684); test: CYP inhibition, Vivid CYP450 Screening Kit; assay type: in vitro ADME; conditions: 0.0046 to 10 μM tested
T6 construct: purchased Invitrogen Corporation, Carlsbad, CA, USA
Procedure: as §2

hERG potassium channels = target: T7, hERG potassium channels (Homo sapiens, UniProt Q12809); test: Cardiac toxicity, Predictor hERG fluorescence polarization binding
T7 construct: purchased Invitrogen Corporation, Carlsbad, CA, USA
Procedure: Cardiac toxicity was evaluated by estimating the influence of each substance on hERG potassium channels using the in vitro test system Invitrogen® PredictorTM hERG (Invitrogen Corporation, Carlsbad, CA, USA), containing Predictor hERG membrane preparations, fluorescent tracer stock solution and an assay buffer solution. Experimental procedures were conducted in accordance with the PredictorTM hERG test system's manufacturer instructions. Assays were performed in 384-well microplates. Each well contained 5 μL aliquot of each concentration of test compound, 10 μL of (2X) membrane preparation and 5 μL of working tracer solution. The cumulative reaction volume was 20 μl with 1% of DMSO ([19]). All procedures were performed at 4 replicates for each concentration. The plate was allowed to incubate at room temperature for at least 1 h prior to fluorescence polarization measurements performed with a microplate reader Infinite M1000 PRO (Tecan).

[3] = test system: rats with streptozotocin-nicotinamide (STZ-NA) induced T2D; test: Hypoglycemic activity after continuous (28 days) oral administration in T2D rat model, OGTT; assay type: in vivo; conditions: daily oral ZB-16 1 mg/kg or sitagliptin 10 mg/kg for 28 days, STZ-NA T2D
Procedure: Procedures were performed in 40 female Wistar rats weighing 250–280 g. Streptozotocin-nicotinamide-induced rat model of T2D was used ([24], [25]). Briefly, streptozotocin (Sigma, St. Louis, MO, USA) was administered i.p. to overnight fasted rats (65 mg/kg in 100 mmol/l citrate buffer, Ph 4.5). Nicotinamide (Sigma, St. Louis, MO, USA) (230 mg/kg) dissolved in saline was administered i.p. 15 min before streptozotocin. STZ-NA T2D had been confirmed 72 h after in rats with blood glucose levels in a range 9–14 mmol/l measured in fasting (6 h) conditions. […] Following the continuous oral administration of sitagliptin (10 mg/kg), ZB-16 (1 mg/kg) or saline during 28 days STZ-NA T2D confirmation the fasting blood glucose levels were measured, and oral glucose tolerance test (OGTT) was performed. For OGTT rats received an oral dose of […] glucose dissolved in saline; blood glucose levels were monitored every 30 min for 2 h after glucose administration. Sitagliptin dose was chosen in accordance with published data ([26]).

[4] = Biotransformation in vitro, microsomal stability (mouse); assay type: in vitro ADME
Procedure: as §1

[5] = Britton-Robinson universal buffer, pH 2, aqueous buffer
[6] = Britton-Robinson universal buffer, pH 4, aqueous buffer
[7] = Britton-Robinson universal buffer, pH 7, aqueous buffer

T7 sequence (Q12809 whole entry): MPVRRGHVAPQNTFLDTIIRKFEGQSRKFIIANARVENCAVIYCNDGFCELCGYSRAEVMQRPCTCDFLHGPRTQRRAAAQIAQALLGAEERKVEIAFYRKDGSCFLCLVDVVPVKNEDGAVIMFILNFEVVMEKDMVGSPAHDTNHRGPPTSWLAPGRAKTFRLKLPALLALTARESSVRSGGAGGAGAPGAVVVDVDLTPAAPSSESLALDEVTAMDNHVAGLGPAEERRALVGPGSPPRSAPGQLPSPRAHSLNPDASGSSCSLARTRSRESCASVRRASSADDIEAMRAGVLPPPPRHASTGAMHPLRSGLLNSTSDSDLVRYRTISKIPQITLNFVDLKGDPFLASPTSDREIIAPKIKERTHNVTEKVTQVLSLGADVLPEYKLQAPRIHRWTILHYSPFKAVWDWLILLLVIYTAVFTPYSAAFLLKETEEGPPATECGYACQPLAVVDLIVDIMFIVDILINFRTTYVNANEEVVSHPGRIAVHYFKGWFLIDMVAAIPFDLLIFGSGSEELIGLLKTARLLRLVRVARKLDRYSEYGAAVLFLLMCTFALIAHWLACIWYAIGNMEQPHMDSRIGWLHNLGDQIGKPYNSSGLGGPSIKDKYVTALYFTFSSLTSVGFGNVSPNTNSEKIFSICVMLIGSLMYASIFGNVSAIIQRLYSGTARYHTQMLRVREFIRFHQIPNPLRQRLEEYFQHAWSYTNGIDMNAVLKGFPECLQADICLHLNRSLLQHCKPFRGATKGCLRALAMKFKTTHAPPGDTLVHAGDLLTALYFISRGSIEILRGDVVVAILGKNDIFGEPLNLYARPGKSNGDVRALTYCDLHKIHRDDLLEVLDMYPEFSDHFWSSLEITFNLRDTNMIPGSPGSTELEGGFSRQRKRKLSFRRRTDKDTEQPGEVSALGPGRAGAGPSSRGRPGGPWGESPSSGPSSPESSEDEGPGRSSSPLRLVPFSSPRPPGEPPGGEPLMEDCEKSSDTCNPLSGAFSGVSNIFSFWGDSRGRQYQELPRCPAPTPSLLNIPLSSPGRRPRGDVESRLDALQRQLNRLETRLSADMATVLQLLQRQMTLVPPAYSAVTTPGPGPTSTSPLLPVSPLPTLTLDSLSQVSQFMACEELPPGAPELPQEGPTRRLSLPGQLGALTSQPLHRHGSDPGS
T6 sequence (P08684 whole entry): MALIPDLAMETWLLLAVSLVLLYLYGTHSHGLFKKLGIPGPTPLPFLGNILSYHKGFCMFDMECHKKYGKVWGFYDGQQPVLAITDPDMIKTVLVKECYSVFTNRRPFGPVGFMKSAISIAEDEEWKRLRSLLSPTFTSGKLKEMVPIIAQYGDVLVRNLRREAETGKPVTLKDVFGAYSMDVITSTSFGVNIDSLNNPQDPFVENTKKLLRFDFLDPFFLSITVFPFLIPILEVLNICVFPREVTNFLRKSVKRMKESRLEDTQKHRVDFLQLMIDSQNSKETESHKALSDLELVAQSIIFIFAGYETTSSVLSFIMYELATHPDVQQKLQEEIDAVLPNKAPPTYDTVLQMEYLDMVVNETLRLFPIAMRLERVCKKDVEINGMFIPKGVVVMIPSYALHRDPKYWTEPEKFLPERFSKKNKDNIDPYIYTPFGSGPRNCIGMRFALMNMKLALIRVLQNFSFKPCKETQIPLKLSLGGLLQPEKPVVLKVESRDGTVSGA
T5 sequence (P10635 whole entry): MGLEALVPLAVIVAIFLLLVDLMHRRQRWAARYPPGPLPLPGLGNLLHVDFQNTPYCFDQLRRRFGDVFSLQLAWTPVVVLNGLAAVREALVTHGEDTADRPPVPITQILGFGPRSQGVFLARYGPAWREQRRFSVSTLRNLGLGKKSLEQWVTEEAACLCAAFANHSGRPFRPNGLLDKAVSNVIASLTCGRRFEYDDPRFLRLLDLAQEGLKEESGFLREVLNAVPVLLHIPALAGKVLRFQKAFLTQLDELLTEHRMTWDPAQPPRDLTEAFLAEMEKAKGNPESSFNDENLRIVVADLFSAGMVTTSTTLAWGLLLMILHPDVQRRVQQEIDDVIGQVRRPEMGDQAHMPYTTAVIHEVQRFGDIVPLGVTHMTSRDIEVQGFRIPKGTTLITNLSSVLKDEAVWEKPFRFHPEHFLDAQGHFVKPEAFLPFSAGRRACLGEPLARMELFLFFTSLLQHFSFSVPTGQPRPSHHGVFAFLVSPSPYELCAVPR
T3 sequence (P33261 whole entry): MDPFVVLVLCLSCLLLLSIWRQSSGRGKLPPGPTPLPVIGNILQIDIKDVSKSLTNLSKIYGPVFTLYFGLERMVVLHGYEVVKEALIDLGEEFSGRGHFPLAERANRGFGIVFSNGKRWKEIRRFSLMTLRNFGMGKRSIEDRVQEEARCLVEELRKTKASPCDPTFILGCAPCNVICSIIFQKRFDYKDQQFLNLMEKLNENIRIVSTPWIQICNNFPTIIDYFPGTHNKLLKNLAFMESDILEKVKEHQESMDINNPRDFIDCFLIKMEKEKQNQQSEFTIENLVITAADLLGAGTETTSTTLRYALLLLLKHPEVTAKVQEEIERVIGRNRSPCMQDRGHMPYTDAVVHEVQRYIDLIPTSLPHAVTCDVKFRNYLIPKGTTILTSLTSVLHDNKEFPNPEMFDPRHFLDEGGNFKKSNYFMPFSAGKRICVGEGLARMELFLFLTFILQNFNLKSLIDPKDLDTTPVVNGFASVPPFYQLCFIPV
T4 sequence (P11712 whole entry): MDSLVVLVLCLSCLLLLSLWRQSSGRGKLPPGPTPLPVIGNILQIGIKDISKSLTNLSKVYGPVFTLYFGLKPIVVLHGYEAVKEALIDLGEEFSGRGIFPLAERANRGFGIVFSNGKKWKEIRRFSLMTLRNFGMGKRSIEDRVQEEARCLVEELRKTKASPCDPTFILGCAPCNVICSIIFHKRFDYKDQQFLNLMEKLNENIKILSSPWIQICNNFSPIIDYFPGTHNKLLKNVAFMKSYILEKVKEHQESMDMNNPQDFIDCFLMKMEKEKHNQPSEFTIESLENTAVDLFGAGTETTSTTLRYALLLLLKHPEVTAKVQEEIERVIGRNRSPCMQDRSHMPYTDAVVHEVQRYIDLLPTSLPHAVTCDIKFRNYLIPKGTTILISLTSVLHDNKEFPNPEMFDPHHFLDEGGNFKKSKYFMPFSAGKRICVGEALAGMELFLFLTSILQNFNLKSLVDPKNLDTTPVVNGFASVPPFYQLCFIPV

Compound	EC50 (human GPR119 (hGPR119))	ER [1]	CLh [1]	microsomal CLint at 0.5 μM [1]	half-life at 0.5 μM [1]	ER [2]	CLh [2]	microsomal CLint at 0.5 μM [2]	half-life at 0.5 μM [2]	solubility (physchem; [5])	solubility (physchem; [6])	solubility (physchem; [7])	further results
CC/C(=C(/CC)c1ccc(O)cc1)c1ccc(O)cc1 [Diethylstilbestrol, reference compound]													Solubility (μM) UB, 2% DMSO pH 2 (pH 2): 15 μM; Solubility (μM) UB, 2% DMSO pH 4 (pH 4): 14 μM; Solubility (μM) UB, 2% DMSO pH 7 (pH 7): 14 μM; solubility (physchem; pH 2, aqueous buffer): 12 µM (≈ 3.22 µg/mL); solubility (physchem; pH 4, aqueous buffer): 10 µM (≈ 2.68 µg/mL); solubility (physchem; pH 7, aqueous buffer): 12 µM (≈ 3.22 µg/mL)
N[C@@H](CC(=O)N1CCn2c(nnc2C(F)(F)F)C1)Cc1cc(F)c(F)cc1F [sitagliptin, reference compound]													blood glucose levels [3]: reduction
CC(C)(C)OC(=O)N1CCC(COc2ccc(-c3ccc4c(c3)OCS4(=O)=O)cc2F)CC1 [ZB-09]		0.94	20.44	666 µL/min/mg	4.16 min	0.74	40.97	89.2 µL/min/mg	31.1 min	< 3 µM	< 3 µM	< 3 µM	EC50 (human GPR119 (hGPR119); values of the text): 4 nM; CLh ([4]; Mouse microsomal fraction): 84.06; ER ([4]; Mouse microsomal fraction): 0.93; microsomal CLint at 0.5 μM ([4]; liver microsomal fraction): 324 µL/min/mg; half-life at 0.5 μM ([4]; liver microsomal fraction, read-out: t1/2, min): 8.57 min
CC(C)OC(=O)N1CCC(COc2ccc(-c3ccc4c(c3)OCS4(=O)=O)cc2F)CC1 [ZB-17]	12.5 nM									< 3 µM	< 3 µM	< 3 µM	
CCN1C(=O)c2ccccc2S(=O)(=O)c2ccc(C(=O)NCc3ccc(F)cc3)cc21 [C530-0339]	10700 nM												
CCN1C(=O)c2ccccc2S(=O)(=O)c2ccc(C(=O)NCCc3ccc(Cl)cc3)cc21 [C530-0315]	71.3 nM												

The next lines start with results.

EC50 (human GPR119 (hGPR119))	ER [1]	CLh [1]	microsomal CLint at 0.5 μM [1]	half-life at 0.5 μM [1]	ER [2]	CLh [2]	microsomal CLint at 0.5 μM [2]	half-life at 0.5 μM [2]	solubility (physchem; [5])	solubility (physchem; [6])	solubility (physchem; [7])	Compound	further results
11 nM	0.95	20.66	1110 µL/min/mg	2.5 min	0.81	44.29	126 µL/min/mg	21.9 min	< 3 µM	< 3 µM	< 3 µM	CC(C)(C)OC(=O)N1CCC(COc2ccc(-c3ccc4c(c3)OCS4(=O)=O)cn2)CC1 [ZB-19]	
29.3 nM	0.76	16.57	68 µL/min/mg	40.8 min	0.41	22.53	21.2 µL/min/mg	131 min	< 3 µM	< 3 µM	< 3 µM	O=S1(=O)COc2cc(-c3ccc(OCC4CCN(c5ncc(Cl)cn5)CC4)nc3)ccc21 [ZB-20]	EC50 (human GPR119 (hGPR119); values of the text): 29 nM; IC50 (CYP1A2): > 10 µM; IC50 (CYP2C19): > 10 µM; IC50 (CYP2C9): > 10 µM; IC50 (CYP2D6): > 10 µM; IC50 (CYP3A4): > 10 µM; Average polarization mP (n = 4) (hERG potassium channels; 1 μM): 261 mP; Unbound hERG % (hERG potassium channels; 1 μM): 89%; Average polarization mP (n = 4) (hERG potassium channels; 10 μM): 263 mP; Unbound hERG % (hERG potassium channels; 10 μM): 91%
63.5 nM									25 µM (≈ 11.5 µg/mL)	< 3 µM	< 3 µM	O=S1(=O)COc2cc(-c3ccc(OCC4CCN(CC(F)(F)F)CC4)c(F)c3)ccc21 [ZB-18]	
